The test system of one series is protein kinase C (PKC). The note with it: cited from earlier work.
In series [1] the test system is NCC (lysis of IM-9 target cells). Put plainly: NCC cytotoxicity (51Cr release) after treatment with protein kinase inhibitors. Format: cell-based, channel catfish (Ictalurus punctatus). To be noted: for Percentage specific release: media control 25.9%; for activation at 30 µM / activation at 60 µM: read-out: Percentage increase (vs media control). The protocol:
To prepare NCC, fish were lightly anesthetized with ethyl m-aminobenzoate (Sigma Chemical Co.) in water and sacrificed.
IM-9 target cells were used in cytotoxicity assays. […] Cells were grown in stationary suspension cultures and were maintained at approximately 1×10^6 cells/ml. […]

Series [2] relates to cyclic nucleotide dependent kinases. To be noted: cited from earlier work.
Series [3] concerns NCC membrane proteins (tyrosine phosphorylation). Put plainly: Tyrosine phosphorylation of NCC membrane proteins following mab 5C6 activation (Western blot). The note with it: NCC pretreated two hours with inhibitor; 100 μg/ml genistein or 30 μM HA1004. The format is cell-based, channel catfish (Ictalurus punctatus). Here is the method:
FIG. 1. Tyrosine phosphorylation of NCC membrane proteins following activation by mab 5C6. NCC were resuspended at 500×10^6 /ml and 200 μl aliquots were incubated at 37° C. with either 125 μl ammonium sulfate precipitate mab 5C6 (left panel) or an isotype control (right panel). At the indicated timed intervals, the reactions were terminated by addition of 325 μl of 2×lysis buffer. Lysates were immunoprecipitated with mab 4G10, electrophoresed on 11% SDS-PAGE, blotted onto nitrocellulose, and probed with mab 4G10. Molecular weight markers are indicated by the arrows.
FIG. 2. Tyrosine phosphorylation of Percoll-enriched NCC. Fish NCC were centrifuged for 15 minutes at 500 g on a 45.5% Percoll cushion. The cells at the interphase were harvested, washed, and treated with mab 5C6 for 0 and 20 sec before addition of 2×lysis buffer. Lysates were electrophoresed, blotted on nitrocellulose, and probed with mab 4G10.
FIG. 3. Effects of genistein on tyrosine phosphorylation in fish NCC. Fish NCC were incubated with media, genistein (100 μg/ml), or HA1004 (30 μM) for two hours prior to activation for zero time with mab 5C6 (left lane) and 40 sec with either mab 5C6 (middle lane) or an irrelevant IgM isotype control (right lane). Reactions were stopped by addition of lysis buffer and lysates were processed as explained in the legends to FIGS. 1 and 2. […]
On the technique in general: Immunoblotting shows a protein as a band on a membrane.

Series [4] concerns NCC (lysis of IM-9 target cells). Nature of the series: Costimulation assay: NCC cytotoxicity (51Cr release) with A23187 or mab 5C6. Format: cell-based, channel catfish (Ictalurus punctatus). To be noted: for activity at 60 µM: Ictalurus punctatus, IM-9, 2 h, mabs 1:50 dilution, H-7, HA1004 60 μM, genistein 0.5 μg/ml. Here is the method:
Incubation was two hours and cells were either washed or not washed before addition to ^51 Cr-labeled IM-9 target cells (4- to 6-hour cytotoxicity assays).
To further investigate this inhibitory effect, a costimulus experiment was done using a calcium ionophore, e.g., A23187, combined with the various inhibitors and activators of NCC activity. Pretreatment of NCC with A23187 produced an almost identical increase in cytotoxicity regardless of the identity of the first treatment.
In a second costimulus experiment mab 5C6 was used (instead of A23187) to activate cytotoxicity (Table 6).

The subject of another series is Na^+ /K^+ ATPase. To be noted: cited from earlier work.

“Also recorded” adds a separate entry of the source. Structures can show the parent of a compound that is named as a salt. Where two headings read alike, the source gives them in different places.

Consider three compounds from patent US5593678A, “Protection of teleost fish” (University of Georgia Research Foundation, priority 1994, dated 1997).

By inhibition is commonly meant how much of the control response was suppressed. As for `CNCCNS(=O)(=O)c1cccc2cnccc12.Cl.Cl` [H-8, N-(2-(methylamino)ethyl)-5-isoquinolinesulfonamide di-HCl], the “effect on protein kinase C” value in the series on protein kinase C (PKC) (di-HCl) was “almost no effect on PKC activity; also recorded: limited effect on PKC”. In series [1], the “inhibition of NCC cytotoxicity” value is “time and dose dependent inhibition of NCC cytotoxicity”. The inhibition at 30 µM in series [1] (Ictalurus punctatus, 1.5 h, read-out: Percentage inhibition (NCC activity), 30 μM, 90 minutes, washed, E:T 80.1) was 0%. The inhibition at 60 µM in series [1] (Ictalurus punctatus, 1.5 h, read-out: Percentage inhibition (NCC activity), 60 μM, 90 minutes, washed, E:T 80.1) is 13.8%. Moreover, in series [1] (Ictalurus punctatus, 1.5 h, read-out: Percentage inhibition (NCC activity), 150 μM, 90 minutes, washed, E:T 80.1), the inhibition at 150 µM was 36.9%. Also, in series [1] (Ictalurus punctatus, 1.5 h, read-out: Percentage inhibition (NCC activity), 300 μM, 90 minutes, washed, E:T 80.1), the inhibition at 300 µM came out at 46.5%. In addition, the “inhibition of NCC activity, comparison with H-7” value in series [1] (approximately 150 μM H-8, di-HCl) is on record as “levels of inhibition comparable to that obtained with an approximately 30 μM concentration of H-7”. The “inhibition of cyclic nucleotide dependent kinases” value in series [2] is given as “more inhibitory of cyclic nucleotide dependent kinases”.

For `N=C(N)NCCNS(=O)(=O)c1cccc2cnccc12` [HA1004, N-(2-guanidoethyl)-5-isoquinolinesulfonamide di-HCl], the “specific protein phosphorylation after mab 5C6” value in series [3] was “did occur”. Moreover, the “effect on protein kinase C” value with protein kinase C (PKC) was “no effect on PKC”. In series [1], the “effect of removal (washing) of inhibitor on cytotoxicity” value was “did not reduce the augmentation of cytotoxicity”. Moreover, the Percentage specific release was found to be 38.7% in series [1] (30 μM, 60 min); 39.0% in series [1] (30 μM, 120 min); 36.0% in series [1] (30 μM, 180 min/wash); 35.9% in series [1] (30 μM, 180 min); 38.5% in series [1] (60 μM, 60 min); 36.9% in series [1] (60 μM, 120 min). The Percentage specific release was determined as 34.2% in series [1] (60 μM, 180 min/wash); 36.5% in series [1] (60 μM, 180 min); 33.2% in series [4] (E:T 40:1, 10^-4 M A23187, 60 μM H7 and HA1004, 0.5 μg/ml genistein, 1:3 dilution of tissue culture supernatant, media control 20.6). In addition, the activation at 30 µM in series [1] (Ictalurus punctatus, 1 h, 30 μM, 60 min) amounted to 49.2%; in series [1] (Ictalurus punctatus, 2 h, 30 μM, 120 min) it was 50.2%; in series [1] (Ictalurus punctatus, 3 h, 30 μM, 180 min/wash) it was 38.7%; in series [1] (Ictalurus punctatus, 3 h, 30 μM, 180 min) it was 38.5%. In addition, the activation at 60 µM was 48.3% in series [1] (Ictalurus punctatus, 1 h, 60 μM, 60 min); 42.1% in series [1] (Ictalurus punctatus, 2 h, 60 μM, 120 min); 31.8% in series [1] (Ictalurus punctatus, 3 h, 60 μM, 180 min/wash); 40.6% in series [1] (Ictalurus punctatus, 3 h, 60 μM, 180 min). Moreover, in series [2], the “inhibition of cyclic nucleotide dependent kinases” value is “inhibits mostly cyclic nucleotide dependent kinases”. Besides, the activity at 60 µM was 211% in series [4] (4 × 10^6 NCC/ml, read-out: Percentage of control (E:T ratio) 40%) and 243% in series [4] (read-out: Percentage of control (E:T ratio) 20%). In series [4] (pretreatment prior to A23187, di-HCl), the “influence of pretreatment on A23187 activation” value is “did not appear to be additive and did not influence the final level of activation”.

As for `[O]=[V+2]` [vanadyl ion, vanadyl (IV) ion], the “Na^+ /K^+ ATPase inhibition” value in the series on Na^+ /K^+ ATPase was “little effect”.
